{
  "source": "patent US12226395B2",
  "about": "“Composition for preventing or treating neurodegenerative diseases, containing diterpene-based compound” (KOREA RESEARCH INSTITUTE OF BIOSCIENCE AND BIOTECHNOLOGY, priority 2017, dated 2025)",
  "type_in_all_cases": "cell-based",
  "key": {"Nurr1 [1]": {"molecular_target": "T1, Nurr1 (Homo sapiens, UniProt P43354)", "T1 construct": "3 types of plasmid DNA, including DNA containing Nurr1-LBD and DNA with β-galactosidase, were transfected into BE(2)C cells; expressed in transfected cells; host or cells: BE(2)C cells", "T1 sequence (P43354 360-595 limits assumed)": "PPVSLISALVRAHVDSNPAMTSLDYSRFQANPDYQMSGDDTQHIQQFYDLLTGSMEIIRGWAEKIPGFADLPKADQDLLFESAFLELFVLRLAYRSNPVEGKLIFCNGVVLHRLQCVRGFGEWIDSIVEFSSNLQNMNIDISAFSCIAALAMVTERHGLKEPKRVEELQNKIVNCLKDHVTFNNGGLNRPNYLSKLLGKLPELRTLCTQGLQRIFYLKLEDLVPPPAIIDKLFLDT", "assay": "Nurr1 activity, luciferase reporter analysis in transfected BE(2)C cells", "settings": "for Nurr1 activity (luciferase), multiple of 0.1% DMSO control: BE(2)C cells, 20 hours"}, "Nurr1 [2]": {"molecular_target": "T1, Nurr1", "assay": "Nurr1 activity, luciferase reporter analysis in transfected BE(2)C cells", "settings": "BE(2)C cells, 20 hours", "from_the_text": "As in Example 2, Nurr1 activity according to the concentration of the diterpene isolated from the extract of Daphne genkwa was confirmed through luciferase analysis.\nSpecifically, after synthesizing a vector in which the gene having the nucleotide sequence (5′-CTCGGAGGACAGTACTCCG-3 SEQ ID NO:1) to which the GLA4 gene can bind is repeated 8 times to the reporter gene, luciferase, is synthesized, 3 types of plasmid DNA, including DNA containing Nurr1-LBD and DNA with β-galactosidase, were transfected into BE(2)C cells. After 6 hours, the compounds 1 to 10 separated in Example 2 were treated according to the concentrations in Table 1 below. The cells thus treated were cultured in a 5% carbon dioxide incubator at 37° C. for 20 hours, and then luciferase analysis was performed. As a control, 0.1% DMSO was used, and at this time, the activity was increased by multiple, and Amodiaquine was used as a positive control."}, "[3]": {"system": "nitric oxide production in microglia BV-2 cells", "assay": "Inhibition of nitric oxide production in LPS-treated microglia BV-2 cells (Griess reagent)", "settings": "Mus musculus", "from_the_text": "The death of cranial nerve cells due to an inflammatory reaction in a microglia cell has been reported as one of the main causes of degenerative brain diseases such as dementia and Parkinson's disease. (Sarkar S et al., Neurotoxicology, 44, 250-262 (2014); Bower J H et al., Neurology, 67, 494-496 (2006)). Accordingly, the inhibition activity on nitric oxide production, a representative inflammatory factor, was investigated for the compounds isolated from Example 2 in a microglia. Specifically, microglia BV-2 cells were put into a 96-well plate at 5×10^4 cells/well, and cultured for 2 days, followed by incubation with LPS ([…]) for 24 hours with the compound isolated in Example 2 above. The culture supernatant was measured for absorbance at 540 nm using the Griess reagent to quantify nitrite to investigate the amount of nitric oxide production. Minocyline was used as a positive control."}, "[4]": {"settings": "BV-2 cells, LPS 24 hours, nitrite by Griess reagent, read-out: IC50, inhibition of nitric oxide production (Table 4)"}},
  "note": "Where two headings read alike, the source gives them in different places.",
  "data": [
    {"smiles": "CCN(CC)Cc1cc(Nc2ccnc3cc(Cl)ccc23)ccc1O", "note": "[AQ, Amodiaquine, reference compound]", "values": [
      {"measurement": "Nurr1 activity (luciferase), multiple of 0.1% DMSO control", "setting": "Nurr1 [1]; Low concentration = 5 μM (Table 1)", "result": 0.9},
      {"measurement": "Nurr1 activity (luciferase), multiple of 0.1% DMSO control", "setting": "Nurr1 [1]; Mid concentration = 20 μM (Table 1)", "result": 1.8}
    ]},
    {"smiles": "C=C(C)[C@@]12O[C@@]3(c4ccccc4)O[C@@H]1C1[C@@H]4O[C@]4(CO)[C@@H](O)[C@]4(O)C(=O)C(C)=CC4[C@@]1(O3)[C@H](C)[C@H]2OC(C)=O", "note": "(stereo partly drawn) [Formula 1, (2S,3aR,3cS,4aR,5S,5aS,8bR,9R,10R,10aS)-5,5a-dihydroxy-4a-(hydroxymethyl)-7,9-dimethyl-6-oxo-2-phenyl-10a-(prop-1-en-2-yl)-3a,3b,3c,4a,5,5a,8a,9,10,10a-decahydro-6H-2,8b-epoxyoxireno[2″,3″:6′,7′]azuleno[5′,4′:3,4]benzo[1,2-d][1,3]dioxol-10-yl acetate]", "values": [
      {"measurement": "Nurr1 activity (luciferase), multiple of 0.1% DMSO control", "setting": "Nurr1 [2]; High concentration = 1 μM (Table 1)", "result": 1.7},
      {"measurement": "Nurr1 activity (luciferase), multiple of 0.1% DMSO control", "setting": "Nurr1 [2]; Low concentration = 0.01 μM (Table 1)", "result": 1.0},
      {"measurement": "Nurr1 activity (luciferase), multiple of 0.1% DMSO control", "setting": "Nurr1 [2]; Mid concentration = 0.1 μM (Table 1)", "result": 1.5},
      {"measurement": "IC50", "setting": "[3]; [4]", "result": "0.37 ± 0.15", "unit": "µM"}
    ]},
    {"smiles": "C=C(C)[C@]12C[C@@H](C)[C@@]34O[C@](c5ccccc5)(O[C@@H]1C3[C@H](O)[C@@](O)(COC(=O)c1ccccc1)[C@@H](O)[C@@]1(O)C4C[C@H](C)[C@@H]1O)O2", "note": "(stereo partly drawn) [Formula 3, ((2S,3aR,4S,5S,6S,6aR,7S,8S,9bR,10R,11aR)-4,5,6,6a,7-pentahydroxy-8,10-dimethyl-2-phenyl-11a-(prop-1-en-2-yl)dodecahydro-5H-2,9b-epoxyazuleno[5′,4′:3,4]benzo[1,2-d][1,3]dioxol-5-yl)methyl benzoate]", "values": [
      {"measurement": "Nurr1 activity (luciferase), multiple of 0.1% DMSO control", "setting": "Nurr1 [2]; High concentration = 10 μM (Table 1)", "result": 1.4},
      {"measurement": "Nurr1 activity (luciferase), multiple of 0.1% DMSO control", "setting": "Nurr1 [2]; Low concentration = 0.1 μM (Table 1)", "result": 1.2},
      {"measurement": "Nurr1 activity (luciferase), multiple of 0.1% DMSO control", "setting": "Nurr1 [2]; Mid concentration = 1 μM (Table 1)", "result": 1.4},
      {"measurement": "IC50", "setting": "[3]; BV-2, 24 h, read-out: IC50, inhibition of nitric oxide production (Table 4)", "result": "1.06 ± 0.12", "unit": "µM"}
    ]},
    {"smiles": "C=C(C)[C@]12C[C@@H](C)[C@@]34OC(c5ccccc5)(O[C@@H]1C3[C@@H]1O[C@]1(CO)[C@@H](O)[C@]13OC(=O)O[C@H]1[C@@H](C)CC43)O2", "note": "(stereo partly shown) [Formula 10, genkwanin I]", "values": [
      {"measurement": "IC50", "setting": "[3]; [4]", "result": "7.79 ± 0.91", "unit": "µM"},
      {"measurement": "Nurr1 activity (luciferase), multiple of 0.1% DMSO control", "setting": "Nurr1 [1]; High concentration = 100 μM (Table 1)", "result": 1.1},
      {"measurement": "Nurr1 activity (luciferase), multiple of 0.1% DMSO control", "setting": "Nurr1 [1]; Low concentration = 1 μM (Table 1)", "result": 1.8},
      {"measurement": "Nurr1 activity (luciferase), multiple of 0.1% DMSO control", "setting": "Nurr1 [1]; Mid concentration = 10 μM (Table 1)", "result": 1.9}
    ]},
    {"smiles": "CN(C)c1ccc(O)c2c1C[C@H]1C[C@H]3[C@H](N(C)C)C(O)=C(C(N)=O)C(=O)[C@@]3(O)C(O)=C1C2=O", "note": "[Minocycline, reference compound]", "values": [
      {"measurement": "IC50", "setting": "[3]; [4]", "result": "21.3 ± 0.48", "unit": "µM"}
    ]},
    {"smiles": "C=C(C)[C@]12C[C@@H](C)[C@@]34O[C@](c5ccccc5)(O[C@@H]1C3[C@@H]1O[C@]1(CO)[C@@H](O)[C@@]1(O)C4C[C@H](C)[C@@H]1OC(=O)/C=C/C=C/CCCCC)O2", "note": "(stereo partly drawn) [compound 12, (2S,3aR,3cS,4aR,5S,5aS,6S,7S,8bR,9R,10aR)-5,5a-dihydroxy-4a-(hydroxymethyl)-7,9-dimethyl-2-phenyl-10a-(prop-1-en-2-yl)dodecahydro-6H-2,8b-epoxyoxireno[2″,3″:6′,7′]azuleno[5′,4′:3,4]benzo[1,2-d][1,3]dioxol-6-yl (2E,4E)-deca-2,4-dienoate]", "values": [
      {"measurement": "IC50", "setting": "[3]; BV-2 cells, LPS 24 hours, nitrite by Griess reagent, read-out: IC50, inhibition of nitric oxide production (Table 5)", "result": 2.3, "unit": "µM"},
      {"measurement": "Nurr1 activity (Table 3), relative to control treatment", "setting": "Nurr1 [1]; 0.03 μM", "result": "1.4 ± 0.18"},
      {"measurement": "Nurr1 activity (Table 3), relative to control treatment", "setting": "Nurr1 [1]; 0.1 μM", "result": "**1.29 ± 0.04"},
      {"measurement": "Nurr1 activity (Table 3), relative to control treatment", "setting": "Nurr1 [1]; 0.3 μM", "result": "*1.33 ± 0.06"},
      {"measurement": "Nurr1 activity (Table 3), relative to control treatment", "setting": "Nurr1 [1]; 1 μM", "result": "*1.62 ± 0.21"}
    ]},
    {"smiles": "C=C(C)[C@@]12O[C@@]3(/C=C/C=C/CCCCC)O[C@@H]1[C@@H]1[C@@H]4O[C@]4(CO)[C@@H](O)[C@]4(O)C(=O)C(C)=C[C@H]4[C@@]1(O3)[C@H](C)[C@H]2OC(C)=O", "note": "[compound 15, prostratin Q]", "values": [
      {"measurement": "IC50", "setting": "[3]; BV-2, 24 h, read-out: IC50, inhibition of nitric oxide production (Table 5)", "result": 3.73, "unit": "µM"},
      {"measurement": "Nurr1 activity (Table 3), relative to control treatment", "setting": "Nurr1 [1]; 0.03 μM", "result": "1.17 ± 0.22"},
      {"measurement": "Nurr1 activity (Table 3), relative to control treatment", "setting": "Nurr1 [1]; 0.1 μM", "result": "1.28 ± 0.35"},
      {"measurement": "Nurr1 activity (Table 3), relative to control treatment", "setting": "Nurr1 [1]; 0.3 μM", "result": "**1.59 ± 0.08"},
      {"measurement": "Nurr1 activity (Table 3), relative to control treatment", "setting": "Nurr1 [1]; 1 μM", "result": "*2.12 ± 0.37"}
    ]}
  ]
}
